Reference: ChEMBL document CHEMBL3832085

Assay: clinical
Settings: human, in vivo, topical or ocular, 46.1 mg

AUC (AUC(0 to inf)): 61.3 ng·h/mL | Cmax (Cmax): 27.2 ng/mL | Tmax (Tmax): 45 min
SMILES: CCN(CC)CC(=O)Nc1c(C)cccc1C [LIDOCAINE]
